This passage reports mutagenic call results from PubChem BioAssay AID1259407 (Chemical Carcinogenesis Research Information System (CCRIS), 2018).

The test system of the series is CCRIS mutagenicity, Ames/micronucleus/aberration tests. The experiment in a line: CCRIS mutagenicity studies.
Where [1] appears, read: Test System: AMES SALMONELLA TYPHIMURIUM, Strain/Indicator: TA98, Metabolic Activation: NONE, Method: PREINCUBATION
Where [2] appears, read: Test System: AMES SALMONELLA TYPHIMURIUM, Strain/Indicator: TA98, Metabolic Activation: NONE, Method: STANDARD PLATE.
Where [3] appears, read: Test System: AMES SALMONELLA TYPHIMURIUM, Strain/Indicator: TA98, Metabolic Activation: RAT, LIVER, S-9, AROCLOR 1254, Method: PREINCUBATION
Where [4] appears, read: Test System: AMES SALMONELLA TYPHIMURIUM, Strain/Indicator: TA100, Metabolic Activation: NONE, Method: PREINCUBATION
Setting [5] is: Test System: AMES SALMONELLA TYPHIMURIUM, Strain/Indicator: TA100, Metabolic Activation: NONE, Method: STANDARD PLATE.
[6] abbreviates: Test System: AMES SALMONELLA TYPHIMURIUM, Strain/Indicator: TA100, Metabolic Activation: RAT, LIVER, S-9, AROCLOR 1254, Method: PREINCUBATION
Setting [7] is: Test System: AMES SALMONELLA TYPHIMURIUM, Strain/Indicator: TA102, Metabolic Activation: NONE, Method: PREINCUBATION
Where [8] appears, read: Test System: AMES SALMONELLA TYPHIMURIUM, Strain/Indicator: TA102, Metabolic Activation: RAT, LIVER, S-9, AROCLOR 1254, Method: PREINCUBATION
The mark [9] stands for this setting: Test System: AMES SALMONELLA TYPHIMURIUM, Strain/Indicator: TA1535, Metabolic Activation: NONE, Method: STANDARD PLATE.
Setting [10] is: Test System: AMES SALMONELLA TYPHIMURIUM, Strain/Indicator: TA1537, Metabolic Activation: NONE, Method: STANDARD PLATE.

Each structure is given as a SMILES string. Active and inactive are the calls of the source. The rule behind the calls is not given here.

With `NCC(=O)O`, the mutagenic call (Test System: AMES SALMONELLA TYPHIMURIUM, Strain/Indicator: TA97, Metabolic Activation: NONE, Method: PREINCUBATION) was “inactive; negative”; the mutagenic call (Test System: AMES SALMONELLA TYPHIMURIUM, Strain/Indicator: TA97, Metabolic Activation: RAT, LIVER, S-9, AROCLOR 1254, Method: PREINCUBATION) was “inactive; negative”; the mutagenic call (Test System: AMES SALMONELLA TYPHIMURIUM, Strain/Indicator: TA98, Metabolic Activation: HAMSTER, LIVER, S-9, AROCLOR 1254, Method: PREINCUBATION) is “inactive; negative”; the mutagenic call under setting [1] was “inactive; negative”; the mutagenic call under setting [2] was “inactive; negative”; the mutagenic call under setting [3] is “inactive; negative”. In addition, the mutagenic call is, setting by setting: (Test System: AMES SALMONELLA TYPHIMURIUM, Strain/Indicator: TA98, Metabolic Activation: RAT, LIVER, S-9, AROCLOR 1254, Method: STANDARD PLATE) “inactive; negative”; (Test System: AMES SALMONELLA TYPHIMURIUM, Strain/Indicator: TA100, Metabolic Activation: HAMSTER, LIVER, S-9, AROCLOR 1254, Method: PREINCUBATION) “inactive; negative”; under setting [4], “inactive; negative”; under setting [5], “inactive; negative”; under setting [6], “inactive; negative”; (Test System: AMES SALMONELLA TYPHIMURIUM, Strain/Indicator: TA100, Metabolic Activation: RAT, LIVER, S-9, AROCLOR 1254, Method: STANDARD PLATE) “inactive; negative”. The mutagenic call is, setting by setting: under setting [7], “inactive; negative”; under setting [8], “inactive; negative”; (Test System: AMES SALMONELLA TYPHIMURIUM, Strain/Indicator: TA1535, Metabolic Activation: HAMSTER, LIVER, S-9, AROCLOR 1254, Method: PREINCUBATION) “inactive; negative”; (Test System: AMES SALMONELLA TYPHIMURIUM, Strain/Indicator: TA1535, Metabolic Activation: NONE, Method: PREINCUBATION) “inactive; negative”; under setting [9], “inactive; negative”; (Test System: AMES SALMONELLA TYPHIMURIUM, Strain/Indicator: TA1535, Metabolic Activation: RAT, LIVER, S-9, AROCLOR 1254, Method: PREINCUBATION) “inactive; negative”. The mutagenic call was “inactive; negative” (Test System: AMES SALMONELLA TYPHIMURIUM, Strain/Indicator: TA1535, Metabolic Activation: RAT, LIVER, S-9, AROCLOR 1254, Method: STANDARD PLATE); “inactive; negative” (Test System: AMES SALMONELLA TYPHIMURIUM, Strain/Indicator: TA1537, Metabolic Activation: HAMSTER, LIVER, S-9, AROCLOR 1254, Method: PREINCUBATION); “inactive; negative” (Test System: AMES SALMONELLA TYPHIMURIUM, Strain/Indicator: TA1537, Metabolic Activation: NONE, Method: PREINCUBATION); “inactive; negative” under setting [10]; “inactive; negative” (Test System: AMES SALMONELLA TYPHIMURIUM, Strain/Indicator: TA1537, Metabolic Activation: RAT, LIVER, S-9, AROCLOR 1254, Method: PREINCUBATION); “inactive; negative” (Test System: AMES SALMONELLA TYPHIMURIUM, Strain/Indicator: TA1537, Metabolic Activation: RAT, LIVER, S-9, AROCLOR 1254, Method: STANDARD PLATE). The mutagenic call is, setting by setting: (Test System: AMES SALMONELLA TYPHIMURIUM, Strain/Indicator: TA1538, Metabolic Activation: NONE, Method: STANDARD PLATE) “inactive; negative”; (Test System: AMES SALMONELLA TYPHIMURIUM, Strain/Indicator: TA1538, Metabolic Activation: RAT, LIVER, S-9, AROCLOR 1254, Method: STANDARD PLATE) “inactive; negative”; (Test System: MOUSE LYMPHOMA, Strain/Indicator: L5178Y (TK+/TK-), Metabolic Activation: NONE) “inactive; negative”; (Test System: MOUSE LYMPHOMA, Strain/Indicator: L5178Y (TK+/TK-), Metabolic Activation: RAT, LIVER, S-9, AROCLOR 1254) “inactive; negative”; (Test System: MOUSE LYMPHOMA, Strain/Indicator: L5178Y (TK+/TK-), Metabolic Activation: RAT, LIVER, S-9, AROCLOR 1254, Method: SUSPENSION/PLATE) “inactive; negative. reevaluation of results: inconclusive”; (Test System: Mouse lymphoma, Strain/Indicator: L5178Y (tk+/tk-), Metabolic Activation: None, Method: Suspension/plate) “active; inconclusive (previous evaluation positive)”. For the setting “Test System: UDS RAT PRIMARY HEPATOCYTES, Metabolic Activation: NONE”, the mutagenic call is “inactive; negative”.
On to `CC1C=CC(=O)O1` (stereo not given), for which the mutagenic call is “inactive; negative” under setting [1]; “inactive; negative” under setting [3]; “inactive; negative” under setting [4]; “inactive; negative” under setting [6]; “inactive; negative” under setting [7]; “inactive; negative” under setting [8].
Take `COc1cc(-c2ccc(N/N=C3\C(=O)c4ccc(N)cc4C=C3S(=O)(=O)O)c(OC)c2)ccc1N/N=C1/C=C(S(=O)(=O)O)c2ccccc2C1=O`: under “Test System: AMES SALMONELLA TYPHIMURIUM, Strain/Indicator: TA98, Metabolic Activation: HAMSTER, LIVER, S-9, Method: PREINCUBATION (PRIVAL METHOD)”, the mutagenic call is “active; positive”.
Take `COc1cccc2c1C(=O)c1c(O)c3c(c(O)c1C2=O)CC(O)(C(C)=O)CC3OC1CC(N(C)C)C(O)C(C)O1` (stereo not given): the mutagenic call reads like this: (Test System: CHINESE HAMSTER V-79, Strain/Indicator: V-79/8-AZAGUANINE, Metabolic Activation: RAT, HEPATOCYTES) “inactive; negative”; (Test System: UDS RAT HEPATOCYTES, Strain/Indicator: THY INCORP, Metabolic Activation: NONE, Method: AUTOMATIC COLONY COUNTER) “active; positive”.
`CC(CNC(=O)c1cccnc1)NC(=O)c1cccnc1` (stereo not given): the mutagenic call was “inactive; negative” under setting [2]; “inactive; negative” (Test System: AMES SALMONELLA TYPHIMURIUM, Strain/Indicator: TA98, Metabolic Activation: RAT, LIVER, S-9, PHENOBARBITAL AND 5,6-BENZOFLAVONE, Method: STANDARD PLATE); “inactive; negative” under setting [5]; “inactive; negative” (Test System: AMES SALMONELLA TYPHIMURIUM, Strain/Indicator: TA100, Metabolic Activation: RAT, LIVER, S-9, PHENOBARBITAL AND 5,6-BENZOFLAVONE, Method: STANDARD PLATE); “inactive; negative” under setting [9]; “inactive; negative” (Test System: AMES SALMONELLA TYPHIMURIUM, Strain/Indicator: TA1535, Metabolic Activation: RAT, LIVER, S-9, PHENOBARBITAL AND 5,6-BENZOFLAVONE, Method: STANDARD PLATE). Moreover, the mutagenic call is “inactive; negative” under setting [10]; “inactive; negative” (Test System: AMES SALMONELLA TYPHIMURIUM, Strain/Indicator: TA1537, Metabolic Activation: RAT, LIVER, S-9, PHENOBARBITAL AND 5,6-BENZOFLAVONE, Method: STANDARD PLATE); “inactive; negative” (Test System: E. COLI, Strain/Indicator: WP2 UVRA, Metabolic Activation: NONE, Method: STANDARD PLATE); “inactive; negative” (Test System: E. COLI, Strain/Indicator: WP2 UVRA, Metabolic Activation: RAT, LIVER, S-9, PHENOBARBITAL AND 5,6-BENZOFLAVONE, Method: STANDARD PLATE).
